Converted amounts (≈) assume the structure as drawn. Counter-ions that a name gives are not always drawn.
Experiments:
Type in all cases: cell-based
S. aureus TASAKI = test: MIC, S. aureus TASAKI; conditions: Staphylococcus aureus; S. aureus TASAKI; standard method of Japanese Chemotherapy Association; read-out: MIC
Protocol: (§1) The minimum inhibition concentrations (MIC) of the compounds obtained by the present invention were measured according to the standard method of Japanese Chemotherapy Association.

S. typhi 1099-77 = test: MIC, S. typhi 1099-77; conditions: Salmonella enterica, TYPHI
Protocol: as §1

S. dysenteriae 4379-60 = test: MIC, S. dysenteriae 4379-60; conditions: Shigella dysenteriae, 437960
Protocol: as §1

S. newport 563 = test: MIC, S. newport 563; conditions: Salmonella enterica, read-out: MIC
Protocol: as §1

S. paratyphi A 144-12-93 = test: MIC, S. paratyphi A 144-12-93; conditions: Salmonella enterica, PARATYPHI
Protocol: as §1

E. cloacae ATCC13047 = test: MIC, E. cloacae ATCC13047; conditions: Enterobacter cloacae
Protocol: as §1

S. anatum 677-69 = test: MIC, S. anatum 677-69; conditions: Salmonella enterica, 67769, read-out: MIC
Protocol: as §1

P. mirabilis IFO3849 = test: MIC, P. mirabilis IFO3849; conditions: Proteus mirabilis, read-out: MIC
Protocol: as §1

P. aeruginosa ATCC9721 = test: MIC, P. aeruginosa ATCC9721; conditions: Pseudomonas aeruginosa; P. aeruginosa ATCC9721; read-out: MIC
Protocol: as §1

S. paratyphi C 33-76 = test: MIC, S. paratyphi C 33-76; conditions: Salmonella enterica, PARATYPHI
Protocol: as §1

S. flexneri Y NCTC 9730 = test: MIC, S. flexneri Y NCTC 9730; conditions: Shigella flexneri, NCTC9730, read-out: MIC
Protocol: as §1

S. paratyphi B = test: MIC, S. paratyphi B; conditions: Salmonella enterica, PARATYPHI
Protocol: as §1

S. epidermidis ATCC14990 = test: MIC, S. epidermidis ATCC14990; conditions: Staphylococcus epidermidis, read-out: MIC
Protocol: as §1

S. aureus Smith = test: MIC, S. aureus Smith; conditions: Staphylococcus aureus, read-out: MIC
Protocol: as §1

P. putida ATCC12633 = test: MIC, P. putida ATCC12633; conditions: Pseudomonas putida
Protocol: as §1

S. sonnei SH72-415 = test: MIC, S. sonnei SH72-415; conditions: Shigella sonnei, SH72415, read-out: MIC
Protocol: as §1

P. vulgaris ATCC6398 = test: MIC, P. vulgaris ATCC6398; conditions: Proteus vulgaris, read-out: MIC
Protocol: as §1

S. faecalis IFO3826 = test: MIC, S. faecalis IFO3826; conditions: Enterococcus faecalis, read-out: MIC
Protocol: as §1

P. maltophilia ATCC13637 = test: MIC, P. maltophilia ATCC13637; conditions: Stenotrophomonas maltophilia
Protocol: as §1

S. typhimurium ATCC13311 = test: MIC, S. typhimurium ATCC13311; conditions: Salmonella enterica, read-out: MIC
Protocol: as §1

S. marcescens IFO12648 = test: MIC, S. marcescens IFO12648; conditions: Serratia marcescens, read-out: MIC
Protocol: as §1

E. coli ATCC25922 = test: MIC, E. coli ATCC25922; conditions: Escherichia coli, read-out: MIC
Protocol: as §1

E. coli NIHJ JC-2 = test: MIC, E. coli NIHJ JC-2; conditions: Escherichia coli, NIHJJC2, read-out: MIC
Protocol: as §1

P. vulgaris ATCC6380 = test: MIC, P. vulgaris ATCC6380; conditions: Proteus vulgaris, read-out: MIC
Protocol: as §1

S. typhimurium IFO 12529 = test: MIC, S. typhimurium IFO 12529; conditions: Salmonella enterica, read-out: MIC
Protocol: as §1

P. cepacia ATCC25416 = test: MIC, P. cepacia ATCC25416; conditions: Burkholderia cepacia, read-out: MIC
Protocol: as §1

S. aureus 209P JC-1 = test: MIC, S. aureus 209P JC-1; conditions: Staphylococcus aureus; S. aureus 209P JC-1; read-out: MIC
Protocol: as §1

S. aureus ATCC25923 = test: MIC, S. aureus ATCC25923; conditions: Staphylococcus aureus; S. aureus ATCC25923; read-out: MIC
Protocol: as §1

C. freundii IFO12681 = test: MIC, C. freundii IFO12681; conditions: Citrobacter freundii, read-out: MIC
Protocol: as §1

P. fluorescens ATCC13525 = test: MIC, P. fluorescens ATCC13525; conditions: Pseudomonas fluorescens, read-out: MIC
Protocol: as §1

[1] = system: S. flexneri 2a CDC 4807-62; test: MIC, S. flexneri 2a CDC 4807-62; conditions: Shigella flexneri, read-out: MIC
Protocol: as §1

K. pneumoniae ATCC27736 = test: MIC, K. pneumoniae ATCC27736; conditions: Klebsiella pneumoniae, read-out: MIC
Protocol: as §1

P. rettgeri ATCC14505 = test: MIC, P. rettgeri ATCC14505; conditions: Providencia rettgeri, read-out: MIC
Protocol: as §1

B. subtilis ATCC6633 = test: MIC, B. subtilis ATCC6633; conditions: Bacillus subtilis; B. subtilis ATCC6633; read-out: MIC
Protocol: as §1

S. boyadii CDC 2064-59 = test: MIC, S. boyadii CDC 2064-59
Protocol: as §1

Compound	MIC (S. aureus TASAKI) [µg/mL]	MIC (S. typhi 1099-77) [µg/mL]	MIC (S. dysenteriae 4379-60) [µg/mL]	MIC (S. newport 563) [µg/mL]	MIC (S. paratyphi A 144-12-93) [µg/mL]	MIC (E. cloacae ATCC13047) [µg/mL]	MIC (S. anatum 677-69) [µg/mL]	MIC (P. mirabilis IFO3849) [µg/mL]	MIC (P. aeruginosa ATCC9721) [µg/mL]	MIC (S. paratyphi C 33-76) [µg/mL]	MIC (S. flexneri Y NCTC 9730) [µg/mL]	MIC (S. paratyphi B) [µg/mL]	MIC (S. epidermidis ATCC14990) [µg/mL]	MIC (S. aureus Smith) [µg/mL]	MIC (P. putida ATCC12633) [µg/mL]	MIC (S. sonnei SH72-415) [µg/mL]	MIC (P. vulgaris ATCC6398) [µg/mL]	MIC (S. faecalis IFO3826) [µg/mL]	MIC (P. maltophilia ATCC13637) [µg/mL]	MIC (S. typhimurium ATCC13311) [µg/mL]	further results
Cn1nnnc1SCC1=C(C(=O)O)N2C(=O)C(NC(=O)C(=NOCC(=O)NN=Cc3ccc(O)c(O)c3)c3csc(N)n3)C2SC1 (stereo not shown) [Example 2, 7-{2-[2-amino-1,3-thiazol-4-yl]-2-[3-(3,4-dihydroxybenzylidene)carbazoyl]methoxyiminoacetamido}-3-[(1-methyl-1,2,3,4-tetrazol-5-yl)thiomethyl]-3-cephem-4-carboxylic acid.hydrochloride]	1.56	≤ 0.006	0.025	0.05	0.05	3.13	0.05	0.2	0.2	0.012	0.78	0.025	0.78	3.13	1.56	0.05	0.05	> 100	1.56	0.05	MIC (S. marcescens IFO12648): 0.39 µg/mL; MIC (E. coli ATCC25922): 0.2 µg/mL; MIC (E. coli NIHJ JC-2): 0.39 µg/mL; MIC (P. vulgaris ATCC6380): 0.2 µg/mL; MIC (S. typhimurium IFO 12529): 0.39 µg/mL; MIC (P. cepacia ATCC25416): 0.78 µg/mL; MIC (S. aureus 209P JC-1): 0.78 µg/mL; MIC (S. aureus ATCC25923): 0.78 µg/mL; MIC (C. freundii IFO12681): 0.39 µg/mL; MIC (P. fluorescens ATCC13525): 12.5 µg/mL; MIC [1]: 0.1 µg/mL; MIC (K. pneumoniae ATCC27736): 0.025 µg/mL; MIC (P. rettgeri ATCC14505): 0.39 µg/mL; MIC (B. subtilis ATCC6633): 0.39 µg/mL; MIC (S. boyadii CDC 2064-59): 0.78 µg/mL
Cc1nnc(SCC2=C(C(=O)O)N3C(=O)C(NC(=O)C(=NOCC(=O)NNC(=O)c4ccc(O)c(O)c4)c4csc(N)n4)C3SC2)s1 (stereo not shown) [Example 59]	1.56 (≈ 2.16 µM)	≤ 0.006	0.05 (≈ 0.0693 µM)	0.05 (≈ 0.0693 µM)	0.025 (≈ 0.0346 µM)	1.56 (≈ 2.16 µM)	0.025 (≈ 0.0346 µM)	0.39 (≈ 0.54 µM)	0.1 (≈ 0.139 µM)	0.012 (≈ 0.0166 µM)	0.78 (≈ 1.08 µM)	0.012 (≈ 0.0166 µM)	0.39 (≈ 0.54 µM)	0.78 (≈ 1.08 µM)	0.78 (≈ 1.08 µM)	0.05 (≈ 0.0693 µM)	0.05 (≈ 0.0693 µM)	> 100	0.78 (≈ 1.08 µM)	0.1 (≈ 0.139 µM)	MIC (S. marcescens IFO12648): 0.39 µg/mL (≈ 0.54 µM); MIC (E. coli ATCC25922): 0.1 µg/mL (≈ 0.139 µM); MIC (E. coli NIHJ JC-2): 0.39 µg/mL (≈ 0.54 µM); MIC (P. vulgaris ATCC6380): 0.39 µg/mL (≈ 0.54 µM); MIC (S. typhimurium IFO 12529): 0.1 µg/mL (≈ 0.139 µM); MIC (P. cepacia ATCC25416): 0.39 µg/mL (≈ 0.54 µM); MIC (S. aureus 209P JC-1): 0.39 µg/mL (≈ 0.54 µM); MIC (S. aureus ATCC25923): 0.78 µg/mL (≈ 1.08 µM); MIC (C. freundii IFO12681): 0.78 µg/mL (≈ 1.08 µM); MIC (P. fluorescens ATCC13525): 12.5 µg/mL (≈ 17.3 µM); MIC [1]: 0.2 µg/mL (≈ 0.277 µM); MIC (K. pneumoniae ATCC27736): 0.012 µg/mL (≈ 0.0166 µM); MIC (P. rettgeri ATCC14505): 0.78 µg/mL (≈ 1.08 µM); MIC (B. subtilis ATCC6633): 0.39 µg/mL (≈ 0.54 µM); MIC (S. boyadii CDC 2064-59): 0.39 µg/mL (≈ 0.54 µM)

— patent publication US4808711A, “Cephalosporin derivatives” (Sankei Pharmaceutical Co., Ltd., priority 1985, dated 1989)
